Experiments:
[1] = biological target: T1, pyruvate dehydrogenase kinase 1 (PDK1) (Homo sapiens, UniProt Q15118); experiment: isothermal titration calorimetry (MicroCal AutoITC200); supported by (α-32P)ATP displacement from purified PDK1; type: binding
T1 construct: His-tagged PDK1

[2] = biological target: T1, pyruvate dehydrogenase kinase 1 (PDK1); experiment: radiolabelled (α-32P)ATP binding to bead-bound purified PDK1, scintillation counting, unlabelled ATP as competitor

T1 sequence (Q15118 29-436): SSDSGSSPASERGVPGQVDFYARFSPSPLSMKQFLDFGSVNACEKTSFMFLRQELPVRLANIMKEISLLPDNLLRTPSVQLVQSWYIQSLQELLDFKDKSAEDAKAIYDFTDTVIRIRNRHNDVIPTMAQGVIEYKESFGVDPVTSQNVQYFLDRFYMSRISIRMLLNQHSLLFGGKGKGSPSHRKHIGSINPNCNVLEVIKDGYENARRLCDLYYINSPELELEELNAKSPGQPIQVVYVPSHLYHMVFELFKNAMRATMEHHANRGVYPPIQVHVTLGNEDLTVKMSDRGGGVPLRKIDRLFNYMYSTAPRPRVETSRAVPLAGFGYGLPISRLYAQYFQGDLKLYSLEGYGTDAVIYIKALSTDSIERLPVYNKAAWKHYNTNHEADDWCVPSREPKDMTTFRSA

Kd [1] [µM]	Compound	radiolabelled (α-32P)ATP binding to bead-bound purified PDK1, scintillation coun [2]
14.6	C=C1CCC[C@H]2[C@](C)(CC3=C(O)C(=O)C=C(OC)C3=O)[C@@H](C)CC[C@]12C [IQ, ilimaquinone]	–
–	Nc1ncnc2c1ncn2[C@@H]1O[C@H](COP(=O)(O)OP(=O)(O)OP(=O)(O)O)[C@@H](O)[C@H]1O [ATP]	The binding of ATP to PDK1 in the presence of IQ was determined using α^32-labeled ATP.

— PMC7504051, “Ilimaquinone Induces the Apoptotic Cell Death of Cancer Cells by Reducing Pyruvate Dehydrogenase Kinase 1 Activity” (International Journal of Molecular Sciences, 2020)
